Where two headings read alike, the source gives them in different places. Bounds are passed on as bounds.

Consider 10 compounds from patent US20050107611A1, “Pyrazolyl-substituted triazoloquinoxalines” (priority 2001, published 2005).

Data set [1] deals with adenosine receptors. The note with it: in words; development for ischemic stroke halted; cited from earlier work.
The target of data set [2] is T1, A1 adenosine receptor (Rattus norvegicus, UniProt P25099).
T1 sequence (P25099 1-326): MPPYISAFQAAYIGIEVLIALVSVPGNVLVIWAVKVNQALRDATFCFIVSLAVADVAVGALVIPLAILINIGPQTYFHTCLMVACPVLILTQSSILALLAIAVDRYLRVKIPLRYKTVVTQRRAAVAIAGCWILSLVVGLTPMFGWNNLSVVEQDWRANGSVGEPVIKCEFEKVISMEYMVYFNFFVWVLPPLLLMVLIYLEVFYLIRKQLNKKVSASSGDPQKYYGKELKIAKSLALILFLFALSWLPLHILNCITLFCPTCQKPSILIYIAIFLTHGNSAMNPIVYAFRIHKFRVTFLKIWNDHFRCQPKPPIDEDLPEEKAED
The following applies: cited from earlier work.

In data set [3] the target is T2, A2A adenosine receptor (Rattus norvegicus, UniProt P30543). The following applies: Table 1, literature values; cited from earlier work.
T2 sequence (P30543 whole entry): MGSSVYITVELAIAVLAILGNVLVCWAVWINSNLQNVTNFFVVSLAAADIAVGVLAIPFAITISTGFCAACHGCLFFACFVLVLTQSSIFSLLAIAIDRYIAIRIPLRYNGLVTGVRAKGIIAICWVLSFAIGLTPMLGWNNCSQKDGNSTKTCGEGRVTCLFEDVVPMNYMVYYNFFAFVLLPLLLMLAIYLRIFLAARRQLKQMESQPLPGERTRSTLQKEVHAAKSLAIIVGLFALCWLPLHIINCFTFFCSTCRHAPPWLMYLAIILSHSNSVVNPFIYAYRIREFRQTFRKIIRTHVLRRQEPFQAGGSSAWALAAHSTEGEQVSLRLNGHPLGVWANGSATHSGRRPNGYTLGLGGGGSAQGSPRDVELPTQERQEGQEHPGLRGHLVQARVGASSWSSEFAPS
For data set [4] the following is noted: in words; cited from earlier work.
For data set [5] the following is noted: in words; cited from earlier work. The source holds these as a separate data set.
For data set [6], the target named is A2A-receptors. The note with it: read-out: KiA2A; cited from earlier work.
For data set [7], the target named is T2, A2A adenosine receptor. Briefly: Receptor binding assay with [3H]MSX-2 on A2A-adenosine receptors. The note with it: for Ki: Table 2, [3H]MSX-2, read-out: A2A K1. More on the design: tissue Pel Freez Company (Rogers, Ark., USA); host or cells: rat brain striatum membranes. The source says: (§1) The data of the biological tests that are cited below results from radioligand-binding assays on A1, A2A, A2B and A3 adenosine receptors (ARs).
(§2) The following selective radioligands are used in the biological tests: • [^3H]CCPA (for A1 ARs) [Klotz et al., Naunyn-Schmiedeberg's Arch. Pharmacol., 340, 679 (1989)] • [^3]MSX-2 (for A2A ARs) [Muiller et al., Eur. J. Pharm. Sci., 10, 259 (2000)] • [^3H]ZM241385 (for A2B ARs_[X.-D. Ji, K. A. Jacobson, Drug Des. Discov., 16, 217 (1999)] • [^3H]PSB-11 (new antagonistic radioligand for human A3 ARs) [M. Dieckmann, M. Thorand, V. Ozola, C. E. Muiller, in Vorbereitung [Preparation] (2001)]. • [^125I]AB-MECA (for rat-A3 ARs) [Olah et al., Mol. Pharmacol., 45, 978 (1994)]. Description of the Assays That are Used for Testing Substances Production of Tissue Preparations Made from Rat Brains
(§3) The cell decomposing of the cerebral cortex is carried out with a glass-Teflon homogenizer (stages 5-6, 10 seconds) in 0.32 M saccharose solution. The membranes are purified over various centrifuging steps. With centrifuging at 600 g, 4° C., for 10 minutes, a large amount of cell debris is separated via the P1 fraction, and the supernatant (P2 fraction) is further worked up: in the subsequent three centrifuging steps (35,000 g; 4° C.; 60 minutes), a pellet is produced that is resuspended in 50 mmol of TRIS buffer, pH 7.4 with the Ultraturrax (stages 3-4, 3 seconds); the respective supernatant is discarded. The striata are added to cold TRIS buffer, homogenized with the Ultraturrax in stages 3 to 4-(3 seconds) and then centrifuged at 35,000 g, 4° C., for 20 minutes. The supernatant is discarded, and the pellet is resuspended in 50 mmol of TRIS buffer (50 mmol, pH 7.4). The washing process is repeated twice more. The membrane preparations are stored at −80° C. and are held for several months. The cerebral cortex membrane preparation is used for A1-radioligand binding studies, and the striatum is used for A2A-radiologiand binding studies.
(§4) The test substances are dissolved in DMSO to 10 mmol. The final concentration of DMSO in the assay is 2.5% for A1- and A2A-adenosine receptor assays and 1-2% for A2B- and A3-assays. Dilution series of the test substances are produced from the stock solution. Five to eight different test concentrations, which comprise 3 orders of magnitude (e.g., 1 nm to 1000 nm), are used.
Receptor Binding Assay with [^3H]MSX-2 on A2A-Adenosine Receptors:
• 25 μl of DMSO, NECA (800 μmol) or test substance dilutions • 775 μl of TRIS buffer (for production, see above) • 100 μl of [^3H]MSX-2 (final concentration 1 nmol; KD value 8 nmol) • 100 μl of rat-striatum-membrane preparation or preparation of CHO cells, which express the human A2A receptor, incubated with 0.12 IE adenosine-deaminase (protein concentration: 25-75 μg/ml) • 1000 μl of final volume
The assay is performed according to the instructions of the receptor-binding assay with [^3H]CCPA with consideration of the amounts and solutions that are listed above. The incubation time is 30 minutes at 23° C. in an oscillating water bath. The glass fiber filter is introduced 30 minutes before use in 0.5% PEI solution.
(§5) The mean value is calculated from three independent experiments. IC50 and K, values are obtained from the Cheng-Prusoff equation, the concentration and the KD value of the radioligand. For calculation, the program GraphPadPrism™, Version 3.0 (GraphPad, San Diego, Calif., USA), was used.

Data set [8] addresses T1, A1 adenosine receptor. Briefly: Radioligand binding with [3H]CCPA on A1-adenosine receptors, rat brain cortex membranes. More on the design: tissue Pel Freez Company (Rogers, Ark., USA); host or cells: rat brain cerebral cortex membranes. The following applies: Table 2; [3H]CCPA; read-out: A1 K1.
From the text: as §1, §2
For the preparations, deep-frozen rat brains of the Pel Freez Company (Rogers, Ark., USA) are used. The rat brains are thawed in 0.32 M saccharose solution, the cortex is cut off, and the striata are prepared outside.
as §3, §4
Radioligand Binding Studies with [^3H]CCPA on A1-Adenosine Receptors:
The mixture is incubated for 90 minutes in an oscillating water bath at 23° C. Then, it is filtered off with a Brandel cell-harvester and washed twice more with ice-cooled TRIS buffer, 50 mmol, pH 7.4 (3 ml). The filter plates are conveyed in scintillation vials, doused with 2.5 ml of Ultima Gold Scintillation cocktail and incubated for at least 6 hours before they are measured in a scintillation counter.
as §5

The mark [9] stands for this setting: Table 1, literature values, read-out: A1 K1.

With `Nc1nc2ccc(Cl)cc2c2nc(-c3ccco3)nn12` [CGS-15943, 9-Chloro-2-(2-furanyl)-[1,2,4]triazolo[1,5-c]quinazoline-5-amine], in data set [1], the selectivity entry is given as “inadequate selectivity”.

Take `Clc1cc(-c2nc3ccccc3n3c(-c4ccco4)nnc23)[nH]n1` [R = 2-Furyl]: the Ki in data set [2] (setting [9]) was 0.41 ± 0.16 µM. For the same compound, the “A2A % Inhibition @ 25 μmol” value in data set [3] is listed as “(31% ± 3%)”.

Turning to `Clc1cc(-c2nc3ccccc3n3c(-c4cccs4)nnc23)[nH]n1` [R = 2-Thienyl], the Ki in data set [2] (setting [9]) is 0.71 ± 0.06 µM. Also, the “A2A % Inhibition @ 25 μmol” value in data set [3] is reported as “(22% ± 13%)”.

As to `Clc1cc(-c2nc3ccccc3n3c(Cc4cccs4)nnc23)[nH]n1` [R = 2-Thienylmethyl], in data set [2] (read-out: KiA1), the Ki was 0.2 µM. In addition, the “A2A % Inhibition @ 25 μmol” value in data set [3] is “(21% ± 10%)”.

Consider `Clc1cc(-c2nc3ccccc3n3c(-c4ccccc4)nnc23)[nH]n1` [R = —C6H5], for which the Ki in data set [2] (setting [9]) is 1.62 ± 0.68 µM. The “A2A % Inhibition @ 25 μmol” value in data set [3] is “(0%)”.

Consider `Clc1cc(-c2nc3ccccc3n3c(Cc4ccccc4)nnc23)[nH]n1` [R =—CH2C6H5], for which the Ki in data set [2] (setting [9]) is 0.31 ± 0.09 µM. The “A2A % Inhibition @ 25 μmol” value in data set [3] is “(6.1% ± 1.5%)”.

Turning to `Nc1nc2c(cnn2CCc2ccccc2)c2nc(-c3ccco3)nn12` [Sch-52861, 2-(2-Furanyl)-7-(2-phenylethyl)-7H-pyrazolo[4,3-e][1,2,4]triazolo[1,5-c]pyrimidine-5-amine], the solubility entry in data set [4] is recorded as “inadequate solubility”. Besides, the oral bioavailability result in data set [5] was “poor oral bioavailability”. In addition, the Ki in data set [6] is 0.0023 µM.

For `Clc1cc(-c2nc3ccccc3n3c(-c4ccsc4)nnc23)n[nH]1` [Y = C-(3-Thienyl), R5 = H, R6 = Cl], the Ki stood at 4.1 µM in data set [7] and 0.33 µM in data set [8].

`Clc1cc(-c2nc3ccccc3n3c(COCc4ccccc4)nnc23)n[nH]1` [Y = C—CH2—O—CH2-Ph, R5 = H, R6 = Cl]: in data set [7] (10 μmol), the “A2A % inhib. @ 10 μmol” value is reported as “(3%)”. Also, the Ki was above 10 µM in data set [7] and 0.62 µM in data set [8].

`CC(Oc1ccccc1)c1nnc2c(-c3cc(Cl)[nH]n3)nc3ccccc3n12` (stereo not drawn) [Y = C—CH—(CH3)—O-Ph, R5 = H, R6 = Cl]: the Ki in data set [7] was determined as 1.18 µM; in data set [8], 0.1 µM.
